This note sets out measurements from patent US10526332B2, “Imidazo-pyrimidone compounds, and preparation method and application thereof” (Nanjing Gator Meditech Company, Ltd., priority 2015, dated 2020).

The structures appear in SMILES notation.

For one experiment, the system named is HCT116. The experiment is described as follows: MTS cell proliferation test, HCT116.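 Further: absorbance at 490 nm after MTS/PMS addition, survival relative to untreated cells (100%) after blank subtraction, IC50 from the concentration–survival curve.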 The note with it: Homo sapiens, HCT-116, 72 h, read-out: HCT116 IC50 (Mean ± SD). (Formazan colour is commonly taken as a measure of viable cells.)
Another experiment has as its system MDA-MB-231. The experiment is described as follows: MTS cell proliferation test, MDA-MB-231.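 Further: cells settled 24 h before compound addition, MTS absorbance at 490 nm, survival as percent of untreated cells after blank subtraction, IC50 fitted from survival versus concentration.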 As to conditions: Homo sapiens, MDA-MB-231, 72 h, read-out: MDA231 IC50 (Mean ± SD).

Protocol for HCT116: (§1) The disclosed compounds and their pharmaceutically accepted salts are assayed for their anti-cancer activities by the following method. • MTS Cell Proliferation Test 1. Materials 1.1. […] Cell Lines
(§2) Two cell lines were used, both HCT116 and MDA-MB-231 were purchased from USATCC.
(§3) MTS reagent powder was purchased from Promega. Cat #G1111; PMS from Sigma, Cat #P8625; cell culture medium RPMI-1640, Cat #10040562R; DMEM, Cat #0013CVR; 100× sodium pyruvate solution Cat #136007; 100× Penicillin Streptomycin Solution, Cat ⊇15140122; 100× Penicillin Streptomycin Solution, Cat #15140122; 0.25% Trypsin (Parenzyme), Cat #25200-072; and fetal bovine serum, Cat #16000-044 were all purchased from Life Technologies.
(§4) • Thermo incubator (Format 371); • Heat force Biosafety Cabinet (HF sage 1500); • BioTek Microplate Reader (Synergy 2). 2. […] 2.3 Procedure of MTS Methods:
(§5) Cells at logarithmic phase were harvested, then digested with 0.25% trypsin, and re-suspense in complete growth medium. 150 uL/well of HCT-116 and MDA-MB-231 were dispensed into 96 well culture plates with 2.5×10^3 cell/well. The plates were pre-incubated in a humidified CO2 incubator at 37° C., 5% CO2) for 24 hours. 50 uL of various concentration of test compounds and reference compound were added. A negative control (only cells and culture medium without compound) and blank control (only culture medium without cells) were set at the same time. The plates were incubated for 72 hr in the incubator. The MTS/PMS solution was prepared and added into 96 well plates according to the test instruction by Promega Corporation. The plates were incubated again for some time, then the absorbance at 490 nm were measured using Biotek Instruments, Inc microplate reader and the cell survival rates calculated. Cell Survival Rate(%)=(At−Ab)/(Ac−Ab)×100% where, • At=Absorbance value of test compound • Ab=Absorbance value of blank • Ac=Absorbance value of control 3. Results
Protocol for MDA-MB-231: as §1, §2, §3, §4, §5

By IC50 is commonly meant the concentration that gives 50% inhibition. For the compound `O=C1C2=C(CCN(Cc3cccc(Br)c3)C2)N2CCN=C2N1Cc1ccccc1Cl` [Compound I-28, 7-(3-bromobenzyl)-4-(2-chlorobenzyl)-1,2,6,7,8,9-hexahydroimidazo[1,2-a]pyrido[3,4-e]pyrimidin-5(4H)-one], the IC50 was determined as 2200 ± 17 nM in the experiment on HCT116 and 2220 ± 29 nM in the experiment on MDA-MB-231.
For the compound `Cc1ccccc1CN1C(=O)C2=C(CCN(Cc3ccc(C(F)(F)F)cc3)C2)N2CCN=C12` [Compound I-6, 4-(2-methylbenzyl)-7-(4-(trifluoromethyl)benzyl)-1,2,6,7,8,9-hexahydroimidazo[1,2-a]pyrido[3,4-e]pyrimidin-5(4H)-one], the values for the 50% inhibitory concentration (IC50) in the experiment with HCT116 and with MDA-MB-231 were 4160 ± 1510 nM and 4450 ± 356 nM, respectively.
Regarding `O=C1C2=C(CCN(Cc3ccccc3F)C2)N2CCN=C2N1Cc1ccccc1F` [Compound I-11, 4,7-bis(2-fluorobenzyl)-1,2,6,7,8,9-hexahydroimidazo[1,2-a]pyrido[3,4-e]pyrimidin-5(4H)-one], the IC50 in the experiment with HCT116 was 1990 ± 41 nM; in the experiment with MDA-MB-231 it was 2180 ± 20 nM.
For `O=C1C2=C(CCN(Cc3ccccc3)C2)N2CCN=C2N1Cc1ccc(Cl)cc1Cl` [Compound I-41, 7-benzyl-4-(2,4-dichlorobenzyl)-1,2,6,7,8,9-hexahydroimidazo[1,2-a]pyrido[3,4-e]pyrimidin-5(4H)-one], in that order: 1730 ± 250 nM and 2010 ± 10 nM.
On the same counts, the results for `O=C1C2=C(CCN(Cc3cccc(F)c3)C2)N2CCN=C2N1Cc1ccccc1Br` [Compound I-52, 4-(2-bromobenzyl)-7-(3-fluorobenzyl)-1,2,6,7,8,9-hexahydroimidazo[1,2-a]pyrido[3,4-e]pyrimidin-5(4H)-one] are 1180 ± 155 nM and 2070 ± 115 nM.
Turning to `Cc1ccccc1CN1C(=O)C2=C(CCN(Cc3ccccc3)C2)N2CCN=C12` [TIC10, 7-benzyl-4-(2-methylbenzyl)-1,2,6,7,8,9-hexahydroimidazo[1,2-a]pyrido[3,4-e]pyrimidin-5(4H)-one, reference compound], the IC50 in the experiment on HCT116 is 1060 ± 240 nM; in the experiment on MDA-MB-231 it was 790 ± 80 nM.
In the case of `O=C1C2=C(CCN(Cc3cccc(F)c3)C2)N2CCN=C2N1Cc1ccccc1Cl` [Compound I-51, 4-(2-chlorobenzyl)-7-(3-fluorobenzyl)-1,2,6,7,8,9-hexahydroimidazo[1,2-a]pyrido[3,4-e]pyrimidin-5(4H)-one], the IC50 in the experiment on HCT116 is 700 ± 1 nM; with MDA-MB-231 it was 730 ± 4 nM.
On the same counts, the results for `O=C1C2=C(CCN(Cc3ccccc3)C2)N2CCN=C2N1Cc1cccc(Cl)c1` [Compound I-1, 7-Benzyl-4-(3-chlorobenzyl)-1,2,6,7,8,9-hexahydroimidazo[1,2-a]pyrido[3,4-e]pyrimidin-5(4H)-one] are 230 ± 9 nM and 240 nM.
On the same counts, the results for `O=C1C2=C(CCN(Cc3ccccc3Br)C2)N2CCN=C2N1Cc1ccccc1F` [Compound I-16, 7-(2-bromobenzyl)-4-(2-fluorobenzyl)-1,2,6,7,8,9-hexahydroimidazo[1,2-a]pyrido[3,4-e]pyrimidin-5(4H)-one] are 2160 ± 13 nM and 3070 ± 752 nM.
For `O=C1C2=C(CCN(Cc3ccccc3Cl)C2)N2CCN=C2N1Cc1ccccc1Br` [Compound I-26, 4-(2-bromobenzyl)-7-(2-chlorobenzyl)-1,2,6,7,8,9-hexahydroimidazo[1,2-a]pyrido[3,4-e]pyrimidin-5(4H)-one], the half-maximal inhibitory concentration (IC50) worked out at 1500 ± 394 nM in the experiment on HCT116 and 2080 ± 67 nM in the experiment with MDA-MB-231.
On to `O=C1C2=C(CCN(Cc3cccc(Cl)c3)C2)N2CCN=C2N1Cc1ccccc1C(F)(F)F` [Compound I-35, 7-(3-chlorobenzyl)-4-(2-(trifluoromethyl)benzyl)-1,2,6,7,8,9-hexahydroimidazo[1,2-a]pyrido[3,4-e]pyrimidin-5(4H)-one], for which the IC50 in the experiment with HCT116 is 6210 ± 77 nM; in the experiment on MDA-MB-231, 4210 ± 634 nM.
`O=C1C2=C(CCN(Cc3cccc(Cl)c3)C2)N2CCN=C2N1Cc1ccccc1Cl` [Compound I-36, 4-(2-chlorobenzyl)-7-(3-chlorobenzyl)-1,2,6,7,8,9-hexahydroimidazo[1,2-a]pyrido[3,4-e]pyrimidin-5(4H)-one]: the half-maximal inhibitory concentration (IC50) in the experiment on HCT116 came out at 720 nM; in the experiment on MDA-MB-231, 740 ± 1 nM.
On to `COc1ccc(CN2CCC3=C(C2)C(=O)N(Cc2ccccc2C)C2=NCCN23)cc1` [Compound I-7, 7-(4-methoxybenzyl)-4-(2-methylbenzyl)-1,2,6,7,8,9-hexahydroimidazo[1,2-a]pyrido[3,4-e]pyrimidin-5(4H)-one], for which the concentration for half-maximal inhibition (IC50) in the experiment on HCT116 came out at 2090 ± 92 nM; with MDA-MB-231 it was 1880 ± 78 nM.
`O=C1C2=C(CCN(Cc3ccccc3)C2)N2CCN=C2N1Cc1ccc(Cl)c(Cl)c1` [Compound I-40, 7-benzyl-4-(3,4-dichlorobenzyl)-1,2,6,7,8,9-hexahydroimidazo[1,2-a]pyrido[3,4-e]pyrimidin-5(4H)-one]: the 50% inhibitory concentration (IC50) in the experiment on HCT116 came out at 80 nM; in the experiment on MDA-MB-231 it was 120 ± 10 nM.
On the same counts, the results for `Cc1cccc(CN2CCC3=C(C2)C(=O)N(Cc2ccccc2C)C2=NCCN23)c1` [Compound I-34, 4-(2-methylbenzyl)-7-(3-methylbenzyl)-1,2,6,7,8,9-hexahydroimidazo[1,2-a]pyrido[3,4-e]pyrimidin-5(4H)-one] are 730 ± 1 nM and 730 ± 2 nM.
Take `Cc1ccccc1CN1C(=O)C2=C(CCN(Cc3ccc(N4CCN(C)CC4)cc3)C2)N2CCN=C12` [Compound I-10, 4-(2-methylbenzyl)-7-(4-(4-methylpiperazin-1-yl)benzyl)-1,2,6,7,8,9-hexahydroimidazo[1,2-a]pyrido[3,4-e]pyrimidin-5(4H)-one]: the IC50 is 2090 ± 16 nM in the experiment with HCT116 and 2190 ± 27 nM with MDA-MB-231.
On the same counts, the results for `O=C1C2=C(CCN(Cc3cccc(Cl)c3)C2)N2CCN=C2N1Cc1ccccc1Br` [Compound I-37, 4-(2-bromobenzyl)-7-(3-chlorobenzyl)-1,2,6,7,8,9-hexahydroimidazo[1,2-a]pyrido[3,4-e]pyrimidin-5(4H)-one] are 2310 ± 33 nM and 2330 ± 95 nM.
For `Cc1ccccc1CN1CCC2=C(C1)C(=O)N(Cc1ccccc1F)C1=NCCN12` [Compound I-21, 4-(2-fluorobenzyl)-7-(2-methylbenzyl)-1,2,6,7,8,9-hexahydroimidazo[1,2-a]pyrido[3,4-e]pyrimidin-5(4H)-one], in that order: 2120 ± 39 nM and 2150 ± 34 nM.
For `O=C1C2=C(CCN(Cc3cccc(F)c3)C2)N2CCN=C2N1Cc1ccccc1F` [Compound I-49, 4-(2-fluorobenzyl)-7-(3-fluorobenzyl)-1,2,6,7,8,9-hexahydroimidazo[1,2-a]pyrido[3,4-e]pyrimidin-5(4H)-one], in that order: 580 ± 43 nM and 930 ± 98 nM.
As for `O=C1C2=C(CCN(Cc3ccccc3)C2)N2CCN=C2N1Cc1ccc(Cl)cc1` [Compound I-3, 7-benzyl-4-(4-chlorobenzyl)-1,2,6,7,8,9-hexahydroimidazo[1,2-a]pyrido[3,4-e]pyrimidin-5(4H)-one], the IC50 in the experiment with HCT116 worked out at 60 ± 6 nM; with MDA-MB-231 it was 70 ± 3 nM.
Turning to `O=C1C2=C(CCN(Cc3ccccc3Cl)C2)N2CCN=C2N1Cc1ccccc1F` [Compound I-23, 7-(2-chlorobenzyl)-4-(2-fluorobenzyl)-1,2,6,7,8,9-hexahydroimidazo[1,2-a]pyrido[3,4-e]pyrimidin-5(4H)-one], the 50% inhibitory concentration (IC50) in the experiment with HCT116 was 2000 ± 26 nM; with MDA-MB-231, 2140 ± 25 nM.
On to `O=C1C2=C(CCN(Cc3cccc(F)c3)C2)N2CCN=C2N1Cc1ccccc1C(F)(F)F` [Compound I-50, 7-(3-fluorobenzyl)-4-(2-(trifluoromethyl)benzyl)-1,2,6,7,8,9-hexahydroimidazo[1,2-a]pyrido[3,4-e]pyrimidin-5(4H)-one], for which the IC50 with HCT116 came out at 770 ± 14 nM; in the experiment on MDA-MB-231, 1770 ± 429 nM.
On the same counts, the results for `O=C1C2=C(CCN(Cc3ccccc3)C2)N2CCN=C2N1Cc1ccccc1Br` [Compound I-5, 7-benzyl-4-(2-bromobenzyl)-1,2,6,7,8,9-hexahydroimidazo[1,2-a]pyrido[3,4-e]pyrimidin-5(4H)-one] are 5960 ± 1350 nM and 6810 ± 57 nM.
Take `O=C1C2=C(CCN(Cc3ccccc3)C2)N2CCN=C2N1Cc1cccc(C(F)(F)F)c1` [Compound I-38, 7-benzyl-4-(3-(trifluoromethyl)benzyl)-1,2,6,7,8,9-hexahydroimidazo[1,2-a]pyrido[3,4-e]pyrimidin-5(4H)-one]: the figures for the IC50 with HCT116 and in the experiment with MDA-MB-231 were 240 ± 20 nM and 400 ± 30 nM, respectively.
